Measured values reported in publication PMC9144521 (Viruses, 2022).
Structures can show the parent of a compound that is named as a salt.

Tests used:
AdV5 = test: Anti-AdV activity assay (IFA of hexon), secondary screen, AdV5; assay type: cell-based, Human adenoviruses type 5; conditions: for Selective Index AdV5: CC50/EC50, Vero cells; for EC50: Vero cells, 48 h, IFA of hexon, 0.02 to 5 μM
in vitro = conditions: African green monkey
AdV3 = test: Anti-AdV activity assay (IFA of hexon), secondary screen, AdV3; assay type: cell-based, Human adenoviruses type 3; conditions: for Selective Index AdV3: CC50/EC50, Vero cells; for EC50: Vero cells, 48 h, IFA of hexon, 0.02 to 5 μM

Row | Compound | Selective Index AdV5 (AdV5) | EC50 (AdV5) [nM] | CC50 at 48 h (in vitro) [nM] | Selective Index AdV3 (AdV3) | EC50 (AdV3) [nM] | CC50 at 48 h (in vitro; Vero cells) [nM]
1 | COc1ccc(-c2ccc3c(N4CCOC[C@@H]4C)nc(N4CCOC[C@@H]4C)nc3n2)cc1CO [AZD8055] | >31.87 | 160 | > 5000 | >44.72 | 110 | –
2 | S=C(NCc1ccc2c(c1)OCO2)N1CCN(c2ncnc3c2oc2ccccc23)CC1 [Amuvatinib] | 4.64 | 1800 | – | 2.10 | 3970 | > 5000
3 | CCCCOc1c(C(=O)c2c(F)cc(C)cc2F)c[nH]c2nncc1-2 [BMS-265246] | >8.35 | 600 | – | >7.84 | 640 | > 5000
4 | CC1(C)CC(=O)c2c(C(F)(F)F)nn(-c3ccc(C(N)=O)c(N[C@H]4CC[C@H](O)CC4)c3)c2C1 [SNX-2112] | >15.09 | 330 | – | >28.87 | 170 | > 5000
5 | Cc1c(CN2CCN(C(=O)[C@H](C)O)CC2)sc2c(N3CCOCC3)nc(-c3cnc(N)nc3)nc12 [GDC-0980] | 10.96 | 270 | 3000 | 36.44 | 80 | –
6 | CC(C)c1cc(-c2n[nH]c(=O)n2-c2ccc3c(ccn3C)c2)c(O)cc1O [STA-9090] | 76.73 | 50 | – | 97.56 | 50 | 4440
7 | CNC(=O)c1cc(Oc2ccc(NC(=O)Nc3ccc(Cl)c(C(F)(F)F)c3)cc2)ccn1 [Sorafenib Tosylate] | 1.53 | 3870 | > 5000 | 4.67 | 1270 | –
8 | COc1c(C)c2c(c(O)c1C/C=C(\C)CCC(=O)OCCN1CCOCC1)C(=O)OC2 [Mycophenolate Mofetil] | >25.83 | 190 | – | >2.72 | 1840 | > 5000
9 | O=C(c1ccc(/C=C/c2n[nH]c3ccccc23)cc1)N1CCNCC1 [KW-2449] | >3.91 | 1280 | > 5000 | >1.37 | 3660 | –
10 | CCn1c(=O)c(-c2cc[nH]n2)cc2c(C)nc(N)nc21 [Voxtalisib] | 0.83 | 2720 | 2260 | 4.83 | 470 | –
11 | CNC(=O)c1ccc(C)c(-n2c(C)cc(OCc3ccc(F)cc3F)c(Br)c2=O)c1 [PH-797804] | >3.16 | 1580 | > 5000 | >250.00 | 20 | –
12 | CCNC(=O)Nc1ccc(-c2nc3c(c(N4CCOC[C@@H]4C)n2)CCN(C2COC2)C3)cc1 [GDC-0349] | >1.91 | 2620 | – | >3.63 | 1380 | > 5000
13 | Cn1c2ccccc2c2c3c(c4c5ccccc5n(CCC#N)c4c21)CNC3=O [Go6976] | 3.22 | 1230 | – | 6.39 | 620 | 3950
14 | Cc1ccc(-n2nc(C(C)(C)C)cc2NC(=O)Nc2ccc(OCCN3CCOCC3)c3ccccc23)cc1 [Doramapimod] | – | > 5000 | > 5000 | >14.24 | 350 | –
15 | CO[C@H]1CC[C@H](N2C(=O)CNc3ncc(-c4ccc(C(C)(C)O)nc4)nc32)CC1 [CC-223] | >3.62 | 1380 | – | >4.50 | 1110 | > 5000
16 | CNC(=O)c1cc(Oc2ccc(NC(=O)Nc3ccc(Cl)c(C(F)(F)F)c3)c(F)c2)ccn1 [Regorafenib] | 2.72 | 1500 | – | 9.30 | 440 | 4060
17 | Cn1c(Nc2ccc(C(F)(F)F)cc2)nc2cc(Oc3ccnc(-c4ncc(C(F)(F)F)[nH]4)c3)ccc21 [RAF265] | – | > 5000 | > 5000 | >3.91 | 1280 | –

Row | Compound | Selective Index AdV5 (AdV5) | EC50 (AdV5) [nM] | CC50 at 48 h (in vitro) [nM] | Selective Index AdV3 (AdV3) | EC50 (AdV3) [nM] | CC50 at 48 h (in vitro; Vero cells) [nM]
18 | CC(C)c1cc(C(=O)N2Cc3ccc(CN4CCN(C)CC4)cc3C2)c(O)cc1O [AT13387] | >27.13 | 180 | – | >61.84 | 80 | > 5000
19 | CC1(C)CC(=O)c2c(C(F)(F)F)nn(-c3ccc(C(N)=O)c(N[C@H]4CC[C@H](OC(=O)CN)CC4)c3)c2C1 [PF-04929113] | >12.46 | 400 | > 5000 | >26.61 | 190 | –
20 | Cc1nc(Nc2[nH]nc3c2CN(C(=O)N[C@H](CN(C)C)c2ccccc2)C3(C)C)c2sccc2n1 [PF-3758309] | >2.22 | 2260 | – | >9.29 | 540 | > 5000
21 | AZD4547 | – | – | – | 8.78 | – | –
22 | CN1CCN(c2ccc(Nc3ncc4cc(C#N)c(=O)n(C5CCCC5)c4n3)cc2)CC1 [ON123300] | >3.08 | 1620 | – | >1.72 | 2910 | > 5000
23 | CNC(=O)c1cccc(-c2ccc3c(N4CCOC[C@@H]4C)nc(N4CCOC[C@@H]4C)nc3n2)c1 [AZD2014] | 56.82 | 70 | 4050 | 171.31 | 20 | –
24 | CO[C@H]1/C=C\C=C(/C)C(=O)NC2=CC(=O)C(NCCN(C)C)=C(C[C@@H](C)C[C@H](OC)[C@H](O)[C@@H](C)/C=C(\C)[C@@H]1OC(N)=O)C2=O [17-DMAG] | >11.58 | 430 | > 5000 | >23.20 | 220 | –
25 | O=C(/C=C\n1cnc(-c2cc(C(F)(F)F)cc(C(F)(F)F)c2)n1)NNc1cnccn1 [KPT-330] | 3.04 | 520 | 1580 | 15.45 | 100 | –
26 | CO[C@@H](C)Cn1c(=O)n(C)c2cnc3ccc(-c4cncc(C(C)(C)O)c4)cc3c21 [LY3023414] | >3.83 | 1310 | > 5000 | >5.58 | 900 | –
27 | Nc1ccc(-c2ccc3ncc4ccc(=O)n(-c5cccc(C(F)(F)F)c5)c4c3c2)cn1 [Torin 2] | – | 90 | – | – | 310 | –
28 | CC(C)NCCCn1c(Sc2cc3c(cc2I)OCO3)nc2c(N)ncnc21 [PU-H71] | >2.27 | 2200 | – | >6.79 | 740 | > 5000
29 | COc1cc2ncnc(Nc3ccc(F)c(Cl)c3)c2cc1NC(=O)/C=C/CN1CCCCC1 [Dacomitinib] | 2.97 | 1640 | – | 6.31 | 770 | 4880
30 | CN1CCC(NC(=O)c2cc(-c3c(O)cc(O)cc3Oc3ccc([N+](=O)[O-])cc3)on2)CC1 [NMS-E973] | – | 4940 | – | – | 920 | –
31 | COc1c(C)cnc(Cn2cnc3c(Cl)nc(N)nc32)c1C [BIIB021] | >21.2 | 240 | > 5000 | >48.73 | 100 | –
32 | CCNC(=O)c1noc(-c2cc(C(C)C)c(O)cc2O)c1-c1ccc(CN2CCOCC2)cc1 [AUY922] | >22.11 | 230 | > 5000 | >28.56 | 180 | –
33 | CNC(=O)CN1CCC(Oc2cc3c(Nc4cccc(Cl)c4F)ncnc3cc2OC)CC1 [AZD8931] | – | > 5000 | > 5000 | >96.15 | 50 | –
34 | NC(=O)CCCSc1nc(N)nc(-c2c(Cl)cc3c4c(cccc24)COC3)n1 [CH5138303] | – | 650 | – | – | 90 | –
